# From patent publication US20210095322A1, “HIGH-PURITY STEVIOL GLYCOSIDES” (PureCircle USA Inc., priority 2018, published 2021)
# Experiments:
# [1] = FEMA GRAS publication; cited from earlier work
# [2] = aqueous solution; Ref: Celaya et al (2016); cited from earlier work
# [3] = Isosweet determination (2-AFC) vs sucrose in acidified water, sweetness potency; type: in vivo, human; settings: pH = 3.2
# Protocol: As an example, Reb AM was evaluated.
Compound,Sweetness Perception Threshold Concentration [1],Solubility [2],Sweetness Equivalent (ppm) in Water ([3]; 2.5% SE),Sweetness Potency in Water ([3]; 2.5% SE),Sweetness Equivalent (ppm) in Water ([3]; 5.0% SE),Sweetness Potency in Water ([3]; 5.0% SE)
"C=C1C[C@@]23CC[C@H]4[C@@](C)(CCC[C@@]4(C)C(=O)O[C@@H]4O[C@H](CO)[C@@H](O)[C@H](O)[C@H]4O)[C@@H]2CC[C@]1(O[C@@H]1O[C@H](CO)[C@@H](O)[C@H](O[C@@H]2O[C@H](CO)[C@@H](O)[C@H](O)[C@H]2O)[C@H]1O[C@@H]1O[C@H](CO)[C@@H](O)[C@H](O)[C@H]1O)C3 [Reb A, rebaudioside A]",30 ppm,<0.7%,94 ppm,266 x sugar equivalent,299 ppm,167 x sugar equivalent
"C=C1C[C@@]23CC[C@H]4[C@@](C)(CCC[C@@]4(C)C(=O)O[C@@H]4O[C@H](CO)[C@@H](O)[C@H](O)[C@H]4O)[C@@H]2CC[C@]1(O[C@@H]1O[C@H](CO)[C@@H](O)[C@H](O)[C@H]1O[C@@H]1O[C@H](CO)[C@@H](O)[C@H](O)[C@H]1O)C3 [Stevioside, stevioside]",–,<0.7%,–,–,–,–
